Experimental data as given in patent US20040018150A1, “Prodrugs of phosphonate nucleotide analogues and methods for selecting and making same” (priority 2003, published 2004).
Where two headings read alike, the source gives them in different places.

Tests used:
HIV-1 [1] = tested on: HIV-1
HIV-1 [2] = conditions: anti-HIV-1; from Mulato and Cherrington, Antiviral Research 36, 91 (1997); cited from earlier work
MT-2 cells [3] = assay: Cytotoxicity in MT-2 cells; conditions: cell culture
[4] = for PMPA AUC in PBMC Mean / PMPA AUC in Plasma Mean: dog, in vivo, po; for PBMC/Plasma Exposure Ratio / Prodrug in Plasma: dogs, oral, 10 mg-equivalent of PMPA/kg
Protocol: Formulations. The prodrugs were formulated as solutions in 50 mM citric acid within 0.5 hour prior to dose. All compounds used in the studies were synthesized by Gilead Sciences. The following lots were used:
Dose Administration and Sample Collection. The in-life phase of this study was conducted in accordance with the recommendations of the “Guide for the Care and Use of Laboratory Animals” (National Institutes of Health publication 86-23) and was approved by an Institutional Animal Care and Use Committee. Fasted male beagle dogs (10±2 kg) were used for the studies. Each drug was administered as a single dose by oral gavage (1.5-2 ml/kg). The dose was 10 mg-equivalent of PMPA/kg. For PBMCs, blood samples were collected at 0 (pre-dose), 2,8, and 24 h post-dose. […] Blood (1.0 ml) was processed immediately for plasma by centrifugation at 2,000 rpm for 10 min. Plasma samples were frozen and maintained at […] until analyzed.
Peripheral Blood Mononuclear Cell (PBMC) preparation. Whole blood (8 ml) drawn at specified time points was mixed in equal proportion with phosphate buffered saline (PBS), layered onto 15 ml of Ficoll-Paque solution (Pharmacia Biotech,) and centrifuged at 400×g for 40 min. PBMC layer was removed and washed once with PBS. Formed PMBC pellet was reconstituted in 0.5 ml of PBS, cells were resuspended, counted using hemocytometer and maintained at […] until analyzed. The number of cells multiplied by the mean single-cell volume was used in calculation of intracellular concentrations. […] Agents Chemother.
Determination of PMPA and Prodrugs in plasma and PBMCs. […] Derivatized samples were then evaporated to dryness and reconstituted in 100 μl of water for HPLC analysis.
Before intracellular PMPA could be determined by HPLC, the large amounts of adenine related ribonucleotides present in the PBMC extracts had to be removed by selective oxidation.
The HPLC system was comprised of a P4000 solvent delivery system with AS3000 autoinjector and F2000 fluorescence detector (Tlermo Separation, San Jose, Calif.). […] The mobile phases used were: A, 5% acetonitrile in 25 mM potassium phosphate buffer with 5 mM tetrabutyl ammonium bromide (TBABr), pH 6.0; B, 60% acetonitrile in 25 mM potassium phosphate buffer with 5 mM TBABr, pH 6.0. The flow rate was 2 ml/min and the column temperature was maintained at 35° C. by a column oven. The gradient profile was 90% A/10% B for 10 min for PMPA and 65%A/35%B for 10 min for the prodrug. […] Data was acquired and stored by a laboratory data acquisition system (PeakPro, Beckman, Allendale, N.J.).
Pharmacokinetic Calculations. […] The AUC values were calculated using the trapezoidal rule.

in vitro = conditions: human
[5] = Incubation of radiolabeled PMPA prodrugs or PMPA in human whole blood; metabolites in plasma, PBMCs and RBCs; format: in vitro ADME; conditions: human, 1 h
Protocol: After 1 hour, plasma, red blood cells (RBCs) and peripheral blood mononuclear cells (PBMCs) were isolated and analyzed by HPLC with radiometric detection.

HIV-1 [6] = assay: microbe, parasite or virus in culture
[7] = tested on: PLCE (porcine liver carboxyesterase); assay: in vitro; format: in vitro ADME; conditions: 37° C., PBS pH 7.4
Protocol: (§1) The in vitro metabolism and stability of separated diastereomers were determined in PLCE, MT-2 extract and human plasma. A biological sample listed below, 80 μL, was transferred into a screw-capped centrifuge tube and incubated at 37° C. for 5 min. A solution containing 0.2 mg/mL of the test compound in a suitable buffer, 20 μL, was added to the biological sample and mixed. The reaction mixture, 20 μL, was immediately sampled and mixed with 60 μL of methanol containing 0.015 mg/mL of 2-hydroxymethylnaphthalene as an internal standard for HPLC analysis. The sample was taken as the time-zero sample. Then, at specific time points, the reaction mixture, 20 μL, was sampled and mixed with 60 μL of methanol containing the internal standard. The mixture thus obtained was centrifuged at 15,000 G for 5 min and the supernatant was analyzed with HPLC under the conditions described below.
(1) PLCE (porcine liver carboxyesterase from Sigma, 160 u/mg protein, 21 mg protein/mL) diluted 20 fold with PBS (phosphated-buffered saline).
In the study for PLCE, the test compound was dissolved in PBS. PBS (phosphate-buffered saline, Sigma) contains 0.01 M phosphate, 0.0027 M potassium chloride, and 0.137 M sodium chloride. pH 7.4 at 37° C.
(§2) The HPLC analysis was carried out under the following conditions.

[8] = Stability / hydrolysis in MT-2 cell extract; format: in vitro ADME; conditions: 37° C., HEPES buffer pH 7.4
Protocol: as §1
(2) MT-2 cell extract was prepared from MT-2 cells according to the published procedure [A. Pompon, I. Lefebvre, J.-L. Imbach, S. Kahn, and D. Farquhar, “Antiviral Chemistry & Chemotherapy”, 5:91-98 (1994)] except for using HEPES buffer described below as the medium.
In the study for MT-2 cell extracts, the test compound was dissolved in HEPES buffer. HEPES buffer contains 0.010 M HEPES, 0.05 M potassium chloride, 0.005 M magnesium chloride, and 0.005 M dl-dithiothreitol. pH 7.4 at 37° C.
as §2

[9] = Stability in human plasma; format: in vitro ADME; conditions: 37° C., TBS pH 7.5
Protocol: as §1
(3) Human plasma (pooled normal human plasma from George King Biomedical Systems, Inc.)
In the study for human plasma, the test compound was dissolved in TBS. TBS (tris-buffered saline, Sigma) contains 0.05 M Tris, 0.0027 M potassium chloride, and 0.138 M sodium chloride. pH 7.5 at 37° C.
as §2

MT-2 cells [10] = tested on: MT-2 cells
[11] = Human immunodeficiency virus 1, MT2
[12] = activity of diastereomer A versus B
[13] = cell culture anti-HIV-1 activity, separated diastereomers and 1:1 mixtures

COC(=O)C(C)NP(=O)(COC(C)Cn1cnc2c(N)ncnc21)Oc1ccccc1 (single isomer, unassigned) [GS-6957a]
Fold change (HIV-1 [1]): 670×
IC50 (HIV-1 [1]): 0.0075 µM

Cc1cn([C@H]2C=C[C@@H](CO)O2)c(=O)[nH]c1=O [d4T]
IC50 (HIV-1 [2]): 8 ± 2.5 µM

COC(=O)[C@H](C)NP(=O)(CO[C@H](C)Cn1cnc2c(N)ncnc21)Oc1ccccc1 (single isomer, unassigned) [GS-6957b]
Fold change (HIV-1 [1]): 33×
IC50 (HIV-1 [1]): 0.15 µM

Nc1ccn([C@@H]2CS[C@H](CO)O2)c(=O)n1 [Compound 3TC]
IC50 (HIV-1 [2]): 1.8 ± 0.25 µM

CCOC(=O)CNP(=O)(CO[C@H](C)Cn1cnc2c(N)ncnc21)Oc1ccccc1 (stereo partly drawn) [GS-7119]
Fold change (HIV-1 [1]): 100×
IC50 (HIV-1 [1]): 0.05 µM
CC50 (MT-2 cells [3]): > 100 µM
PMPA AUC in PBMC Mean [4]: 530
PMPA AUC in Plasma Mean [4]: 6.11
PBMC/Plasma Exposure Ratio [4]: 87
Prodrug in Plasma [4]: YES

Nc1ncnc2c1ncn2CCOCP(=O)(O)O [Adefovir (PMEA), 9-[2-(phosphonomethoxy)ethyl]adenine]
IC50 (HIV-1 [2]): 13.4 ± 4.2 µM

C[C@H](Cn1cnc2c(N)ncnc21)OCP(=O)(O)O [PMPA, 9-[2-(phosphonomethoxy)propyl]adenine]
CC50 (in vitro): 6000 µM
Metabolites (% of Total Peak Area): PMPApp [5]: 16%
IC50 (HIV-1 [2]): 6.3 ± 3.3 µM
IC50 (HIV-1 [6]; [11]): 5 µM
IC50 (HIV-1 [6]; Human immunodeficiency virus 1, MT2, read-out: HIV-1 Activity IC50): 5 µM
Fold change (HIV-1 [1]): 1×

COC(=O)C(Cc1ccccc1)NP(=O)(COC(C)Cn1cnc2c(N)ncnc21)Oc1ccccc1 (single isomer, unassigned) [GS-7003b]
Fold change (HIV-1 [1]): 50×
IC50 (HIV-1 [1]): 0.1 µM

CCOC(=O)C(CC)NP(=O)(COC(C)Cn1cnc2c(N)ncnc21)Oc1ccccc1 (stereo not drawn) [GS-7342]
PLCE hydrolysis product [7]: Met. X
IC50 (HIV-1 [1]): 0.004 µM
Fold change (HIV-1 [1]; IC50 relative to PMPA): 1,250×
IC50 (HIV-1 [1]; read-out: HIV IC50): 0.004 µM
MT-2 extract hydrolysis product [8]: Met. X & PMPA
Human Plasma Stability (HP) product [9]: Met. Y
Human Plasma Stability (HP) t1/2 [9]: 103
PMPA AUC in PBMC Mean [4]: 1060
PMPA AUC in Plasma Mean [4]: 4.6
PBMC/Plasma Exposure Ratio [4]: 230
Prodrug in Plasma [4]: YES

Cc1cn([C@H]2C[C@H](N=[N+]=[N-])[C@@H](CO)O2)c(=O)[nH]c1=O [AZT]
IC50 (HIV-1 [2]): 0.17 ± 0.08 µM

Cc1c(O)cccc1C(=O)N[C@@H](CSc1ccccc1)[C@H](O)CN1C[C@H]2CCCC[C@H]2C[C@H]1C(=O)NC(C)(C)C [Nelfinavir]
IC50 (HIV-1 [2]): 0.006 ± 0.002 µM

COC(=O)[C@H](Cc1ccccc1)NP(=O)(CO[C@H](C)Cn1cnc2c(N)ncnc21)Oc1ccccc1 (stereo partly drawn) [Phe-methylester]
A/B activity (HIV-1 [1]): 10×
Fold change (HIV-1 [1]): 170×
IC50 (HIV-1 [1]): 0.03 µM
CC50 (MT-2 cells [3]): 60 µM

COC(=O)C(Cc1ccccc1)NP(=O)(COC(C)Cn1cnc2c(N)ncnc21)Oc1ccccc1 (single isomer, unassigned) [GS-7003a]
Fold change (HIV-1 [1]): 500×
IC50 (HIV-1 [1]): 0.01 µM

COC(=O)[C@H](C)NP(=O)(CO[C@H](C)Cn1cnc2c(N)ncnc21)Oc1ccccc1 (mixture of isomers) [Ala-methylester]
Fold change (HIV-1 [1]; IC50 relative to PMPA): 200×
A/B activity (HIV-1 [1]; [12]): 20×
IC50 (HIV-1 [1]; [13]): 0.025 µM
CC50 (MT-2 cells [10]): 80 µM

CCOC(=O)[C@H](CC)NP(=O)(CO[C@H](C)Cn1cnc2c(N)ncnc21)Oc1ccccc1 (stereo partly drawn) [ABA-ethyl]
A/B activity (HIV-1 [1]): 7.5×
Fold change (HIV-1 [1]): 625×
IC50 (HIV-1 [1]): 0.008 µM
CC50 (MT-2 cells [3]): > 100 µM

CCOC(=O)[C@H](C)N[P@@](=O)(CO[C@H](C)Cn1cnc2c(N)ncnc21)Oc1ccccc1 (mixture of isomers) [Ala-ethyl, Phenyl PMPA, Ethyl L-Alanyl Amidate]
Fold change (HIV-1 [1]; IC50 relative to PMPA): 250×
A/B activity (HIV-1 [1]; [12]): 10×
IC50 (HIV-1 [1]; [13]): 0.02 µM
CC50 (MT-2 cells [3]): 60 µM

CC(C)OC(=O)[C@H](C)NP(=O)(CO[C@H](C)Cn1cnc2c(N)ncnc21)Oc1ccccc1 (stereo partly drawn) [Ala-isopropyl]
IC50 (HIV-1 [6]; [11]): 0.01 µM
A/B activity (HIV-1 [1]; [12]): 12×

CCOC(=O)CNP(=O)(CO[C@H](C)Cn1cnc2c(N)ncnc21)Oc1ccccc1 (single isomer, unassigned) [GS-7335]
Fold change (HIV-1 [1]): 5×
IC50 (HIV-1 [1]): 1 µM
